{"source": "patent US20220273646A1", "about": "“PHARMACEUTICAL COMPOSITION OF TEMOZOLOMIDE” (INTAS PHARMACEUTICALS LTD., priority 2019, published 2022)", "origin": "cited, not measured here", "key": {"[1]": {"conditions": "solution from powder for intravenous infusion"}, "[2]": {"conditions": "extemporaneously prepared oral suspensions from capsules, 4° C."}}, "note": "Where two headings read alike, the source gives them in different places.", "data": [{"smiles": "Cn1nnc2c(C(N)=O)ncn2c1=O", "note": "[Temozolomide, 4-methyl-5-oxo-2,3,4,6,8-pentazabicyclo[4.3.0] nona-2,7,9-triene-9-carboxamide]", "values": [{"measurement": "temozolomide remained intact", "setting": "[1]; 1.25 mg/mL, 13 weeks at 5° C.", "result": "more than 90%"}, {"measurement": "temozolomide remained intact", "setting": "[1]; 2.5 mg/mL, 9 days at room temperature", "result": "more than 90%"}, {"measurement": "time found chemically stable", "setting": "[2]", "result": "at least 60 days"}]}]}
